This note sets out measurements from article PMC9983021, “Novel GluN2B-Selective NMDA Receptor Negative Allosteric Modulator Possesses Intrinsic Analgesic Properties and Enhances Analgesia of Morphine in a Rodent Tail Flick Pain Model” (ACS Chemical Neuroscience, 2023).

The structures appear in SMILES notation.

One series can be described thus: in vivo. To be noted: C57BL/6J, mouse, ip. Details: species or system mice. How it is done: Some NMDAR antagonists can impact locomotor behavior in animals.[84]−[86] Lower doses have minimal impact while high doses can have anesthetic action that can produce complete immobility. We evaluated this potential side effect in a locomotor assay using a range of doses of EU93-108.
For both male and female mice, n = 8 mice per group were used. Locomotor activity was assessed at 3, 5, 7, 10, 20, and 30 mg/kg EU93-108. Mice were brought to the experiment room the night before and given ad libitum access to food and water. Each mouse was given an i.p. injection of the appropriate dose or vehicle 30 min prior to starting the locomotor boxes (Versamax420 Animal Activity Monitoring System, AccuScan Instruments, Inc., Columbus, OH). Movements of the mice were tracked for 1 h then the mice were placed back in their cages. Data were analyzed using one-way ANOVA and Dunnett’s post hoc test for multiple comparisons where each group was compared to vehicle. Data are presented as mean ± SEM.

In a further series the test system is Sprague-Dawley rats. The series can be described thus: Chung spinal nerve ligation model of allodynia. Format: in vivo. The note with it: male rats, 10 mg/kg i.p., n=10. Here is the method:
Methods for Chung Spinal Nerve Ligation
The Chung spinal nerve ligation model was implemented by Algos Therapeutics. Male Sprague-Dawley rats (Hsd:Sprague-Dawley®™SD®™, Harlan, Indianapolis, Indiana, U.S.A.) weighing 222 ± 1 g were housed three per cage and given ad libitum access to food and water. Animal holding rooms operated on a 12:12h light/dark schedule for the entire duration of the study. The animal colony was maintained at 21 °C and 60% humidity. All experiments were conducted in accordance with the International Association for the Study of Pain guidelines and were approved by the University of Minnesota Animal Care and Use Committee.
Allodynia was induced via the Chung spinal nerve ligation (SNL) method116 in which the animals were anesthetized with isoflurane, the left L5 transverse process was removed, then the L5 and L6 spinal nerves were tightly ligated with 6-0 silk suture. Finally, the wound was closed with internal sutures and external staples. Allodynia was assessed using 8 Semmes-Weinstein filaments (Stoelting, Wood Dale, IL, USA) with varying stiffness (0.4, 0.7, 1.2, 2.0, 3.6, 5.5, 8.5, and 15 g) following the up-down method117 first published by Chaplan et al. in 1994. Baseline measurements were taken two weeks following SNL and prior to compound administration. Measurements were also taken 30, 60, 120 and 240 minutes post intraperitoneal compound injection. […]

A word on the ED50: it is the midpoint of the dose-response relation.

Consider `CS(=O)(=O)Nc1ccc(OC[C@@H](O)CN2CCN(c3ccc(F)c(F)c3)CC2)cc1` [EU93-108, (S)-N-(4-(3-(4-(3,4-Difluorophenyl)piperazin-1-yl)-2-hydroxypropoxy)phenyl)methanesulfonamide], for which the ED50 at 1 h was 15.2 mg/kg in “in vivo” (female) and 13.5 mg/kg in “in vivo” (male). Also, the “effect on allodynia (von Frey threshold)” value in the series on Sprague-Dawley rats is “efficacious”.
